Source: patent US12180187B2, “1-phenyl-5-azinylpyrazolyl-3-oxyalkyl acids and their use for controlling unwanted plant growth” (BAYER AKTIENGESELLSCHAFT, priority 2019, dated 2024)

Experiments:
[1] = test system: POLCO; experiment: Post-emergence action at 320 g/ha against POLCO; type: in vivo, Fallopia convolvulus (Polygonum convolvulus); details: visual rating about 3 weeks after treatment vs untreated controls
In short: (§1)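 Visual % activity vs untreated controls (0% = like control, 100% = plants dead), scored ~3 wk after treatment. Plants were grown in sandy loam in a greenhouse and sprayed on green parts at the one-leaf stage (2–3 wk post-sowing). Spray: WP or EC in water, 0.5% additive, 600 l/ha.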

[2] = test system: AMARE; experiment: Post-emergence action against AMARE, 1.28 kg/ha; type: in vivo, Amaranthus retroflexus; details: dosage 1280 g/ha, visual rating about 3 weeks after treatment vs untreated controls (100% = plants died)
In short: (§2)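 Greenhouse pot test, sandy loam; weeds sprayed post-emergence at one-leaf stage (2–3 weeks after sowing) with WP or EC formulation plus 0.5% additive, 600 l/ha water. Visual rating after about 3 weeks versus untreated controls, 100% = plants dead, 0% = like control.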

[3] = test system: MATIN; experiment: Pre-emergence action at 320 g/ha against MATIN; type: in vivo, Tripleurospermum inodorum (Matricaria inodora); details: visual scoring after about 3 weeks vs untreated controls
In short: (§3)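 Weed and crop seeds sown in pots and covered with soil; WP or EC formulations sprayed pre-emergence onto the soil surface at 320 g/ha with 0.5% additive in 600 l/ha water. Kept in greenhouse; after about 3 weeks activity scored visually as % versus untreated controls (100% = plants dead, 0% = as control).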

[4] = test system: LOLRI; experiment: Post-emergence action against LOLRI, 1.28 kg/ha; type: in vivo, Lolium rigidum; details: dosage 1280 g/ha, visual rating about 3 weeks after treatment vs untreated controls
In short: as §2

[5] = test system: AMARE; experiment: Post-emergence action at 320 g/ha against AMARE; type: in vivo, Amaranthus retroflexus; details: visual rating about 3 weeks after treatment vs untreated controls
In short: as §1

[6] = test system: SETVI; experiment: Post-emergence action against SETVI, 1.28 kg/ha; type: in vivo, Setaria viridis; details: dosage 1280 g/ha, visual rating about 3 weeks after treatment vs untreated controls
In short: as §2

[7] = test system: VIOTR; experiment: Pre-emergence action at 320 g/ha against VIOTR; type: in vivo, Viola tricolor; details: dosage 320 g/ha
In short: as §3

[8] = test system: ECHCG; experiment: Post-emergence action at 320 g/ha against ECHCG; type: in vivo, Echinochloa crus-galli; details: dosage 320 g/ha, visual rating about 3 weeks after treatment vs untreated controls (100% = plants died)
In short: as §1

[9] = test system: ABUTH; experiment: Post-emergence action at 320 g/ha against ABUTH; type: in vivo, Abutilon theophrasti; details: visual rating about 3 weeks after treatment vs untreated controls
In short: as §1

[10] = test system: ECHGC; experiment: Pre-emergence action at 320 g/ha against ECHGC; type: in vivo, Echinochloa crus-galli; details: visual scoring after about 3 weeks vs untreated controls
In short: as §3

[11] = test system: DIGSA; experiment: Post-emergence action at 320 g/ha against DIGSA; type: in vivo, Digitaria sanguinalis; details: dosage 320 g/ha, visual rating about 3 weeks after treatment vs untreated controls (100% = plants died)
In short: as §1

[12] = test system: VERPE; experiment: Pre-emergence action at 320 g/ha against VERPE; type: in vivo, Veronica persica; details: visual scoring after about 3 weeks vs untreated controls
In short: as §3

[13] = test system: STEME; experiment: Post-emergence action against STEME, 1.28 kg/ha; type: in vivo, Stellaria media; details: dosage 1280 g/ha, visual rating about 3 weeks after treatment vs untreated controls (100% = plants died)
In short: as §2

[14] = test system: ABUTH; experiment: Pre-emergence action against ABUTH, 1280 g/ha; type: in vivo, Abutilon theophrasti; details: scored visually after about 3 weeks vs untreated controls (100% = plants have died)
In short: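 Mono- and dicot weed seeds sown in sandy loam were treated on the covering soil surface with WP or EC formulations plus 0.5% additive at 600 L water/ha. Pots stayed in a greenhouse; damage was scored visually after ~3 weeks as percent versus untreated controls (100% = dead).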

[15] = test system: ECHCG; experiment: Post-emergence action against ECHCG, 1.28 kg/ha; type: in vivo, Echinochloa crus-galli; details: dosage 1280 g/ha, visual rating about 3 weeks after treatment vs untreated controls
In short: as §2

[16] = test system: PHBPU; experiment: Post-emergence action at 320 g/ha against PHBPU; type: in vivo; details: visual rating about 3 weeks after treatment vs untreated controls
In short: as §1

Compound	Post-emergence action against POLCO in % [1] [%]	Post-emergence action against AMARE [2] [%]	Pre-emergence action against MATIN in % [3] [%]	Post-emergence action against LOLRI [4] [%]	Post-emergence action against AMARE in % [5] [%]	Post-emergence action against SETVI [6] [%]	Pre-emergence action against VIOTR in % [7] [%]	Post-emergence action at 320 g/ha against ECHCG in % [8] [%]	Post-emergence action against ABUTH in % [9] [%]	Pre-emergence action against ECHGC in % [10] [%]	Post-emergence action at 320 g/ha against DIGSA in % [11] [%]	Pre-emergence action against VERPE in % [12] [%]	Post-emergence action against STEME [13] [%]	Pre-emergence action against ABUTH [14] [%]	Post-emergence action against ECHCG [15] [%]	Post-emergence action against PHBPU in % [16] [%]	further results
CCOC(=O)COc1nn(-c2ccccc2F)c(-c2cncc(F)c2)c1Br [VII-015]	100	90	100	100	90	90	100	90	90	90	100	100	100	90	100	90	–
CCOC(=O)C(C)Oc1nn(-c2ccccc2F)c(-c2ccc(F)nc2)c1Br (stereo not drawn) [VII-019]	90	90	100	100	80	90	100	90	80	100	90	100	100	90	100	90	–
COC(=O)C(C)Oc1nn(-c2ccccc2)c(-c2ccc(F)nc2)c1Cl (stereo not drawn) [VII-023, Methyl 2-{[4-chloro-5-(6-fluoropyridin-3-yl)-1-phenyl-1H-pyrazol-3-yl]oxy}propanoate]	–	–	–	100	–	–	–	80	90	90	–	–	100	–	–	90	pest or weed control at 320 g/ha ([1]; Fallopia convolvulus, 504 h): 90%; pest or weed control at 320 g/ha ([3]; Tripleurospermum inodorum, 504 h): 90%; pest or weed control at 320 g/ha ([5]; Amaranthus retroflexus, 504 h): 90%; pest or weed control at 320 g/ha ([7]; Viola tricolor, 504 h): 100%; pest or weed control at 320 g/ha ([11]; Digitaria sanguinalis, 504 h): 90%; pest or weed control at 320 g/ha ([12]; Veronica persica, 504 h): 80%; pest or weed control at 1280 g/ha ([15]; Echinochloa crus-galli, 504 h): 90%
O=C(O)COc1nn(-c2ccccc2F)c(-c2cncc(F)c2)c1Br [VII-025]	90	90	100	–	90	90	100	90	90	100	100	100	100	90	100	90	–
COC(=O)C(C)Oc1nn(-c2ccccc2)c(-c2cccnc2)c1Cl (stereo not drawn) [VII-032]	80	100	90	100	90	90	100	90	80	90	90	100	100	–	100	90	–
